Values joined by “and” are separate entries in the source; they are usually repeats but may differ in a detail not shown here. Equal entries are not always repeated.

Here are results for one substance from paper PMC6675714 (Cancer Medicine, 2019).

A short description of the series: Plasma pharmacokinetics after single ip injection (Ru by ICP‐MS). The series is classed as in vivo. On the procedure: Blood was collected from submandibular vein using a heparin coated glass capillary into heparinized blood collection tubes on ice at time intervals of 1, 2, 6, 12, 24, 48, and 72 hours post injection. Plasma was harvested by centrifuging blood samples at 2800 rpm for 15 minutes at 4°C and stored frozen at − 80°C until analysis. Similarly, kidney, liver, and tumor were harvested after final time point, weighed, and stored into glass vials. One mL of deionized water was added to each tissue sample, subjected to ultrasonic homogenization at 15 W power for 1 minute, followed by lyophilization.
Plasma and tissue concentrations of Ru and Au were measured using inductively coupled plasma–mass spectrometry (ICP‐MS). Plasma (10 μL) or tissue samples were transferred into glass vials, and 1 mL of a 75:25 mixture of nitric acid (16 N) and hydrochloric acid (12 N) was added to each vial. The mixture was then heated at 90°C for 5 hours. After cooling to room temperature, the samples were centrifuged to remove debris if any. All samples were then mixed with 40 ppb of indium internal standard and analyzed using a Thermo Scientific XSERIES 2 ICP‐MS coupled with ESI PC3 Peltier cooled spray chamber, SC‐FAST injection loop, and SC‐4 autosampler. All the elements were measured using He/H2 collision‐reaction mode.
Pharmacokinetic parameters were obtained from the plasma concentration–time profiles by noncompartmental analysis using Phoenix WinNonlin 6.4 version 6.4 (Pharsight Corporation, Mountain View, CA). The pharmacokinetic parameters quantified were the maximum plasma drug concentration (Cmax), the time to reach Cmax (Tmax), the area under the plasma concentration–time curve from 0 hour to last measurable concentration (AUClast), elimination rate constant (ke), plasma half‐life (t1/2), apparent total clearance of the drug from plasma (Cl/F), and apparent volume of distribution (Vd/F). Concentrations of ruthenium and gold in liver, kidney, and tumors were also determined.

“[Cl2(p‐cymene)Ru(μ‐dppm)Au(IMes)]ClO4 [RANCE‐1]”: the “Time to reach steady state” value (10 mg/kg ip) is recorded as 203.8 ± 93.4 h. For the setting “10 mg/kg single ip, plasma”, the “AUC0‐72h” value turned out to be 792.9 ± 270.3 µg·h/mL, the Cl/F was 0.1667 ± 0.0525 mL/min/kg, the Cmax stood at 22600 ± 2580 ng/mL and the Vd/F is 0.6121 ± 0.429 L/kg. Besides, the t1/2 (10 mg/kg single ip, plasma) is 40.8 h and 40 h and 40.77 ± 18.67 h. For the same substance, for the setting “10 mg/kg single ip, plasma Ru”, the Tmax amounted to 10.00 ± 3.46 h. The Cminss (predicted, based on a dose of 10 mg/kg every 72 h) is 7170 ± 3910 ng/mL.

As a reminder, the Cmax is the highest concentration seen after dosing. As usually defined, the Vd/F is the volume of distribution divided by bioavailability. In general, Tmax refers to the time at which the peak concentration occurs.
